The values below come from patent EP4389121A1, “ANTIVIRAL AMINO ACID DERIVATIVES” (Consejo Superior De Investigaciones Científicas (CSIC), priority 2022, dated 2024).

Read-outs that look alike come from different tables or passages of the source.

Series [1] has as its system SARS-CoV-2 in Vero-E6 cells. In words: microbe, parasite or virus in culture. The format is cell-based. The conditions noted are these: for EC50: read-out: EC50 approx.
In series [2] the test system is SARS-CoV-2. Put plainly: Intracellular viral antigen (N protein) accumulation by immunofluorescence, Vero-E6 cells. Type of series: cell-based. To be noted: Severe acute respiratory syndrome coronavirus 2, Vero C1008, 24 h.
The nature of the next series: in vitro. The conditions noted are these: African green monkey.
Series [3] can be described thus: Cytotoxicity by MTT colorimetric assay, Vero-E6. The conditions noted are these: African green monkey, uninfected Vero-E6 cells. Type of series: cell-based.
The test system of series [4] is SARS-CoV-2. In words: Intracellular viral antigen (N protein) accumulation by immunofluorescence, A549-ACE2 cells. To be noted: Severe acute respiratory syndrome coronavirus 2, A549-ACE2, 48 h. Type of series: cell-based.
Series [5] concerns West Nile virus (WNV-GFP). In words: microbe, parasite or virus in culture. The format is cell-based. The conditions noted are these: Huh-7, 48 h.
The next series relates to HCoV 229E (229E-GFP). In words: organism not typed. The conditions noted are these: Huh-7, 48 h.
Series [6] has as its system vesicular stomatitis virus (VSV-GFP). Put plainly: microbe, parasite or virus in culture. The conditions noted are these: A549-ACE2, 16 h. The format is cell-based.
Setting [7] is: Severe acute respiratory syndrome coronavirus 2, Vero C1008, 72 h.
Where [8] appears, read: Severe acute respiratory syndrome coronavirus 2, Vero C1008, 72 h, read-out: PC min real.
Where [9] appears, read: Severe acute respiratory syndrome coronavirus 2, Vero C1008, 72 h, read-out: PCmin.
Where [10] appears, read: Severe acute respiratory syndrome coronavirus 2, Vero C1008, approximate, estimated from PCmax and PCmin, Vero-E6, MOI 0.001, 72 h.
Setting [11] is: Severe acute respiratory syndrome coronavirus 2, Vero C1008, minimum nominal concentration protecting the Vero-E6 monolayer from virus-induced cell death, MOI 0.001, 72 h, read-out: PCmin.
[12] abbreviates: Severe acute respiratory syndrome coronavirus 2, Vero C1008, real concentration, Vero-E6, MOI 0.001, 72 h, read-out: PC min real.

Method for HCoV 229E (229E-GFP): To study the antiviral effect of selected compounds of the family against a distinct human coronavirus, Huh-7 cell monolayers were infected with a GFP-expressing recombinant HCoV 229E (229E-GFP) at MOI 0.01 in the presence of a wide range of compound concentrations (0.4 to 50 µM). Forty-eight hours later cells were fixed by 10 minutes incubation with a 4 % formaldehyde-PBS solution. After extensive washes with PBS, infection efficiency was evaluated by the detection of GFP accumulation by fluorescence microscopy. Nuclei were stained using DAPI (4',6-diamidino-2-phenylindole) dye. Automated imaging was carried out in a SparkCyto (Tecan) multimode plate reader. The total intensity signal present in vehicle-treated (DMSO) conditions was used as reference (100 %).

For orientation: EC50 means the midpoint of the concentration-response curve. For the compound `CCCCCCOC(=O)[C@H](CCC(=O)NCCC1CCN(Cc2ccccc2)CC1)NC(=O)c1cc2cccnc2s1` [NF1354], the half-maximal effective concentration (EC50) in series [1] (setting [7]) came out at 20.9 µM. The minimal effective concentration came to 27.8 µM in series [1] (setting [8]) and 25 µM in series [1] (setting [9]).

As to `CCOC(=O)[C@H](CCC(=O)NCCC1CCN(Cc2ccccc2)CC1)NC(=O)c1cc(=O)c2cc(OC)ccc2o1` [NF1336, Ethyl N^5-(2-(1-benzylpiperidin-4-yl)ethyl)-N^2-(6-methoxy-4-oxo-4H-chromene-2-carbonyl)-L-glutaminate], the EC50 in series [1] (setting [10]) was 18.4 µM. Further, the minimal effective concentration in series [1] (setting [11]) was 25 µM; in series [1] (setting [12]), 24.5 µM.

As for `CCCCCCOC(=O)[C@H](CCC(=O)NCCC1CCN(Cc2ccccc2)CC1)NC(=O)c1c[nH]c2ccccc12` [NF1325], in series [1] (setting [10]), the EC50 was 19.6 µM. Moreover, the minimal effective concentration stood at 25 µM in series [1] (setting [11]) and 26.1 µM in series [1] (setting [12]).

For the compound `CCCCCCOC(=O)[C@H](CCC(=O)NCCC1CCN(Cc2ccccc2)CC1)NC(=O)OC(C)(C)C` [NF1346], in series [1] (setting [7]), the EC50 worked out at 9.3 µM. Moreover, the minimal effective concentration in series [1] (setting [8]) is 12.4 µM; in series [1] (setting [9]), 12.5 µM.

`CCCCCCOC(=O)[C@H](CCC(=O)NCCC1CCN(Cc2ccccc2)CC1)NC(=O)c1cc(C)on1` [NF1328, n-Hexyl N^5-(2-(1-benzylpiperidin-4-yl)ethyl)-N^2-(5-methylisoxazole-3-carbonyl)-L-glutaminate]: the EC50 in series [1] (setting [10]) was 4.9 µM. The minimal effective concentration in series [1] (setting [11]) stood at 6.25 µM; in series [1] (setting [12]) it was 6.5 µM.

As to `CCCCCCOC(=O)[C@H](CCC(=O)NCCC1CCN(Cc2ccccc2)CC1)NC(=O)Cc1cc(C)no1` [NF1334, n-Hexyl N^5-(2-(1-benzylpiperidin-4-yl)ethyl)-N^2-(2-(3-methylisoxazol-5-yl)acetyl)-L-glutaminate], the EC50 in series [1] (setting [10]) is 10.5 µM. Moreover, the minimal effective concentration worked out at 25 µM in series [1] (setting [11]) and 14 µM in series [1] (setting [12]).

On to `O=C(CC[C@H](NC(=O)OCc1ccccc1)C(=O)OCCBr)NCCC1CCN(Cc2ccccc2)CC1` [NF1363, 2-Bromoethyl N^2-((benzyloxy)carbonyl)-N^5-(2-(1-benzylpiperidin-4-yl)ethyl)-L-glutaminate], for which, in series [1] (setting [10]), the EC50 is 5.4 µM. The minimal effective concentration in series [1] (setting [11]) amounted to 6.25 µM; in series [1] (setting [12]) it was 7.3 µM.

As to `CCOC(=O)[C@H](CCC(=O)NCCC1CCN(Cc2ccccc2)CC1)NC(=O)c1ccc2ccccc2n1` [NF1360, Ethyl N^5-(2-(1-benzylpiperidin-4-yl)ethyl)-N^2-(quinoline-2-carbonyl)-L-glutaminate], the EC50 in series [1] (setting [10]) was 24.3 µM. Also, the minimal effective concentration was 50 µM in series [1] (setting [11]) and 32.3 µM in series [1] (setting [12]).

For the compound `CCOC(=O)[C@H](CCC(=O)NCCC1CCN(Cc2ccccc2)CC1)NC(=O)c1ccccc1` [NF1316], in series [1] (setting [10]), the EC50 was 19.4 µM. The figures for the minimal effective concentration in series [1] (setting [11]) and in series [1] (setting [12]) were 25 µM and 25.9 µM, respectively.

For `CCCCCCOC(=O)[C@H](CCC(=O)NCCC1CCN(Cc2ccccc2)CC1)NC(=O)Cc1cc2ccc(Cl)cc2s1` [NF1353], in series [1] (setting [7]), the concentration for a half-maximal effect (EC50) is 4.5 µM. Moreover, the minimal effective concentration was determined as 6 µM in series [1] (setting [8]) and 6.25 µM in series [1] (setting [9]).

On to `CCCCCCOC(=O)[C@H](CCC(=O)NCCC1CCN(Cc2ccccc2)CC1)NC(=O)c1cc2ccccc2s1` [NF1352], for which the EC50 in series [1] (setting [7]) came to 9.2 µM. Moreover, the minimal effective concentration stood at 12.3 µM in series [1] (setting [8]) and 12.5 µM in series [1] (setting [9]).

In general, EC90 refers to the concentration at which the effect reaches the 90% level. Take `CCCCCCOC(=O)[C@H](CCC(=O)NCCC1CCN(Cc2ccccc2)CC1)NC(=O)OCc1ccccc1` [NF1349]: the concentration for a half-maximal effect (EC50) turned out to be 3.1 µM in the series on SARS-CoV-2 [2]; 3000 nM in the series with SARS-CoV-2 [4]; 36 µM in series [5]; 4.7 µM in series [1] (setting [7]); 2000 nM in the series on HCoV 229E (229E-GFP); 36 µM in series [6]. The EC90 with SARS-CoV-2 [2] is 7 µM; in the series with SARS-CoV-2 [4], 5.5 µM; in series [5], over 50 µM; with HCoV 229E (229E-GFP), 10 µM; in series [6], 47 µM. Further, in “in vitro”, the CC50 was over 50 µM. In series [3], this compound came in with a CC50 at 48 h of over 50 µM. Also, the minimal effective concentration was 6.3 µM in series [1] (setting [8]) and 6.25 µM in series [1] (setting [9]).

As to `CCCCCCOC(=O)[C@H](CCC(=O)NCCC1CCN(Cc2ccccc2)CC1)NC(=O)c1cc(Br)cs1` [NF1351], the concentration for a half-maximal effect (EC50) in series [1] (setting [7]) was determined as 4.3 µM. The minimal effective concentration in series [1] (setting [8]) was 5.7 µM; in series [1] (setting [9]), 6.25 µM.

`CCOC(=O)[C@H](CCC(=O)NCCC1CCN(Cc2ccccc2)CC1)NC(=O)c1ccc2cc(OC)ccc2c1` [NF1322]: the concentration for a half-maximal effect (EC50) in series [1] (setting [10]) is 9.4 µM. Moreover, the minimal effective concentration in series [1] (setting [11]) and in series [1] (setting [12]) was 12.5 µM each time.

`CCOC(=O)[C@H](CCC(=O)NCCC1CCN(Cc2ccccc2)CC1)NC(=O)c1cc2ccccc2oc1=O` [NF1358, Ethyl N^5-(2-(1-benzylpiperidin-4-yl)ethyl)-N^2-(2-oxo-2H-chromene-3-carbonyl)-L-glutaminate]: in series [1] (setting [10]), the EC50 is 19.1 µM. In addition, the minimal effective concentration came out at 25 µM in series [1] (setting [11]) and 25.4 µM in series [1] (setting [12]).

In series [1] (72 h), `CCCCCCOC(=O)[C@H](CCC(=O)NCCC1CCN(Cc2ccccc2)CC1)NC(=O)c1ccccc1` [NF0818] displayed a PC min real of 13.0 µM and a PCmax real of 51.9 µM. The half-maximal effective concentration (EC50) in series [1] (setting [7]) stood at 9.7 µM.

With `CCOC(=O)CC[C@H](NC(=O)OCc1ccccc1)C(=O)NCCC1CCN(Cc2ccccc2)CC1` [NF1313], the EC50 in series [1] (setting [10]) is 19 µM. The minimal effective concentration in series [1] (setting [11]) amounted to 25 µM; in series [1] (setting [12]), 25.3 µM.

With `CCCCCCOC(=O)[C@H](CCC(=O)NCCC1CCN(Cc2ccccc2)CC1)NC(=O)c1cc(=O)c2cc(OC)ccc2o1` [NF1337, n-Hexyl N^5-(2-(1-benzylpiperidin-4-yl)ethyl)-N^2-(6-methoxy-4-oxo-4H-chromene-2-carbonyl)-L-glutaminate], in series [1] (setting [10]), the half-maximal effective concentration (EC50) was 7.7 µM. In addition, the minimal effective concentration in series [1] (setting [11]) turned out to be 12.5 µM; in series [1] (setting [12]), 10.3 µM.

As for `CCCCCCOC(=O)[C@H](CCC(=O)NCCC1CCN(Cc2ccccc2)CC1)NC(=O)c1cccs1` [NF1350], the EC50 in series [1] (setting [7]) came out at 6.9 µM. Moreover, the minimal effective concentration came to 9.2 µM in series [1] (setting [8]) and 6.25 µM in series [1] (setting [9]).

In the case of `CCCCCCOC(=O)[C@H](CCC(=O)NCCC1CCN(Cc2ccccc2)CC1)NC(=O)c1cc(=O)c2c(OC)cc(OC)cc2o1` [NF1340, n-Hexyl N^5-(2-(1-benzylpiperidin-4-yl)ethyl)-N^2-(5,7-dimethoxy-4-oxo-4H-chromene-2-carbonyl)-L-glutaminate], the 50% effective concentration (EC50) in series [1] (setting [10]) was 41.8 µM. Further, the minimal effective concentration in series [1] (setting [11]) was 50 µM; in series [1] (setting [12]), 55.7 µM.
